Data from ChEMBL document CHEMBL1130911 (Bioorg Med Chem Lett, 1998).
Starred links: 1 amine or outer side, 2 acyl side, 3 side chain; linkers in the order of their positions; H or OH if unused. Non-standard residues stand in square brackets, D forms with d. Residues, ends and D or L forms follow the SMILES beside them. X1 = O=C([C@@]1(N[*:1])CCCC[C@@H]1O)[*:2]; X2 = O=C([C@@]1(N[*:1])CCCC[C@H]1O)[*:2]; X3 = O=C([C@@]1(N[*:1])CCC[C@@H]1O)[*:2]; X4 = O=C([C@]1(N[*:1])CCC[C@H]1O)[*:2]

Tests used:
[1] = molecular target: Kappa-type opioid receptor (Rattus norvegicus, UniProt P34975); test: biochemical; assay type: cell-based, CHO
[2] = molecular target: T1, Delta-type opioid receptor (Rattus norvegicus, UniProt P33533); test: Inhibitory activity against forskolin-stimulated cAMP production in chinese hamster ovary cells expressing Opioid receptor delta 1; assay type: functional, cell-based, CHO
[3] = molecular target: T1, Delta-type opioid receptor; test: biochemical; assay type: cell-based, CHO
Description: Binding affinity against rat Opioid receptor delta 1 expressed in CHO cells determined by competitive inhibition of 1 nM [3H]DPDPE.

Mu-type opioid receptor = Mu-type opioid receptor (Rattus norvegicus, UniProt P33535); test: biochemical; assay type: cell-based, CHO
Sequence of Mu-type opioid receptor (P33535 whole entry): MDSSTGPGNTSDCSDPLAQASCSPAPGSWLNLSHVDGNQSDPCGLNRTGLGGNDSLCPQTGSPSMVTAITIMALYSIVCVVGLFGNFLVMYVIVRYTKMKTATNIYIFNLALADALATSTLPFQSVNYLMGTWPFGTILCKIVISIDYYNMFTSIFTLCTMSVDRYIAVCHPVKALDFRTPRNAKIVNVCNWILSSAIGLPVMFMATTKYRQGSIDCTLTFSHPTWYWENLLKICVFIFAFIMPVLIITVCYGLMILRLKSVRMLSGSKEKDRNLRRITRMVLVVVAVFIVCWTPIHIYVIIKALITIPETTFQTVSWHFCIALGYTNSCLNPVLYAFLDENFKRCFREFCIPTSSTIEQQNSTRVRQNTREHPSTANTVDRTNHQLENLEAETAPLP

T1 sequence (P33533 whole entry): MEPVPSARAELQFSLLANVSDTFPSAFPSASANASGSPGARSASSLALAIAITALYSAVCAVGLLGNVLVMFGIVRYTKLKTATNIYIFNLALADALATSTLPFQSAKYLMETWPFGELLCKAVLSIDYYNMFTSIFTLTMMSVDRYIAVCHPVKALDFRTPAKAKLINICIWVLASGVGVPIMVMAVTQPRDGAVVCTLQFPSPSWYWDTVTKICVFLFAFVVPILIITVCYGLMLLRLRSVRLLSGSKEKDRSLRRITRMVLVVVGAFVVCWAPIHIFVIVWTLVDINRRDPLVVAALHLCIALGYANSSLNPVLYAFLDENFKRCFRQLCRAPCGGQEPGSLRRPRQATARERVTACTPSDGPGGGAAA
Sequence of Kappa-type opioid receptor (P34975 whole entry): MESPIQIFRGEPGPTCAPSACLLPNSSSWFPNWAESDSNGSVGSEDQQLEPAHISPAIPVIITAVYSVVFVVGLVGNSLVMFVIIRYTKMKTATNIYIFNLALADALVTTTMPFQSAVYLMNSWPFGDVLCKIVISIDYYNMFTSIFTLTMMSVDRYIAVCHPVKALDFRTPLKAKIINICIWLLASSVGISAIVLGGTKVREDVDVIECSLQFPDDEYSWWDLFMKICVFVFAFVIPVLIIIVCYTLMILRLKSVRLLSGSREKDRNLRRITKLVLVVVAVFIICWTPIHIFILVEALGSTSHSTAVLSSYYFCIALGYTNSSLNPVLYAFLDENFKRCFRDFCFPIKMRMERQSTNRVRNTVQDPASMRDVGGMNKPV

Row | Structure (SMILES) | IC50 ([1]; cho) [nM] | IC50 ([2]; cho) [nM] | IC50 ([3]; cho) [nM] | IC50 (Mu-type opioid receptor; cho) [nM] | IC50 [1] [nM] | IC50 [2] [nM] | IC50 [3] [nM] | IC50 (Mu-type opioid receptor) [nM]
1 | CC(C)C[C@@H](NC(=O)[C@@H](Cc1ccccc1)NC(=O)CNC(=O)[C@@](C)(CO)NC(=O)[C@H](N)Cc1ccc(O)cc1)C(=O)O | > 10000 | 0.071 | 0.4 | 6.3 |  |  |  | 
2 | CC(C)C[C@@H](NC(=O)[C@@H](Cc1ccccc1)NC(=O)CNC(=O)[C@](C)(CO)NC(=O)[C@H](N)Cc1ccc(O)cc1)C(=O)O | > 10000 | 5000 | 2500 | > 10000 |  |  |  | 
3 | CC(C)C[C@H](NC(=O)[C@H](Cc1ccccc1)NC(=O)CNC(=O)[C@@]1(NC(=O)[C@@H](N)Cc2ccc(O)cc2)CCCC[C@@H]1O)C(=O)O (H-Y[X1]GFL-OH) |  |  |  |  | 6310 | 0.005 | 0.01 | 0.25
4 | CC(C)C[C@H](NC(=O)[C@H](Cc1ccccc1)NC(=O)CNC(=O)[C@@]1(NC(=O)[C@@H](N)Cc2ccc(O)cc2)CCCC[C@H]1O)C(=O)O (H-Y[X2]GFL-OH) |  |  |  |  | > 10000 | 2 | 1 | 50
5 | CC(C)C[C@H](NC(=O)[C@H](Cc1ccccc1)NC(=O)CNC(=O)[C@@]1(NC(=O)[C@@H](N)Cc2ccc(O)cc2)CCC[C@@H]1O)C(=O)O (H-Y[X3]GFL-OH) |  |  |  |  | > 10000 | 0.01 | 0.04 | 2.5
6 | CC(C)C[C@H](NC(=O)[C@H](Cc1ccccc1)NC(=O)CNC(=O)[C@]1(NC(=O)[C@@H](N)Cc2ccc(O)cc2)CCC[C@H]1O)C(=O)O (H-Y[X4]GFL-OH) |  |  |  |  | > 10000 | 10 |  | 320
7 | CC(C)C[C@H](NC(=O)[C@H](Cc1ccccc1)NC(=O)CNC(=O)C(C)(C)NC(=O)[C@@H](N)Cc1ccc(O)cc1)C(=O)O (single isomer, unassigned) |  |  |  |  | > 10000 | 140 | 50 | 158
